From article PMC3195939 (Journal of controlled release : official journal of the …, 2011)

How the values were obtained:
[1] = system: HeLa cells; assay: Actin filament visualization with rhodamine-phalloidin in fixed cells; type: cell-based, human; conditions: 2 μM for 30 min at 37°C, rhodamine-phalloidin and DAPI
[2] = system: HeLa cells; assay: Uptake of endocytic markers after inhibitor treatment; type: cell-based, human
[3] = system: cell membranes; conditions: studies in fixed cells; cited from earlier work
[4] = system: HeLa cells; assay: Cellular uptake by live cell confocal fluorescence microscopy; type: cell-based, human

Q: What does the source list for `C/C1=C/C(=O)O[C@@H]2C[C@@H](CC[C@H](C)/C=C\CC1)O[C@@](O)([C@@H]1CSC(=O)N1)C2` [Lat B, Latrunculin B]?
A: Effect on actin filament network [1]: total disruption of the actin filament network; Effect on uptake of 10K-Dex ([2]; 2 μM Lat B, data not shown): did not significantly inhibit

Q: For `CCN(c1nc(N)c(C(=O)NC(=N)N)nc1Cl)C(C)C` [EIPA, 5-(N-ethyl-N-isopropyl)amiloride], which “Effect on uptake of 10K-Dex” value ([2]; 50 μM EIPA) is on record?
A: significantly inhibited

Q: What about the “Effect on uptake of CTX-B” value ([2]; 50 μM EIPA) of the same compound?
A: significantly inhibit

Q: And the “Effect on uptake of EGF” value ([2]; 50 μM EIPA, data not shown)?
A: no or little effect

Q: With kalata B1 as the compound, how does the “Affinity for proteins or lipids in cell membranes” value [3] read?
A: shows membrane affinity

Q: Which results are given for “AF488-MCoTI-I: MCoTI-I site-specifically labeled with AlexaFluor488 through the ε-amino of residue Lys4 in loop 1 (SGSDGGVCPKILQRCRRDSDCPGACICRGNGYCG; not fully specified; AlexaFluor488 on Lys4; UniProt P82408 1-34, looked up)”?
A: Surface binding at 4°C ([4]; 25 μM, 4°C, live HeLa cells): no significant surface binding; Internalization at 4°C ([4]; 25 μM, 1 h incubation at 4°C, completely reversible on 1 h at 37°C): totally inhibited; Internalization (intracellular distribution) ([4]; 25 μM, 1 h incubation at 37°C, serum-free DMEM, live HeLa cells, confocal fluorescence): clearly visible within perinuclear punctate spots inside the cells; Inhibition of cellular uptake by EIPA ([4]; 50 μM EIPA for 30 min at 37°C before 25 μM cyclotide, 1 h uptake): ≈ 80%
